These results are taken from patent US20030100550A1, “Carboxamide diazepin derivatives, preparation method, use as medicines, pharmaceutical compositions and use thereof” (priority 2002, published 2003).

For one test, the target named is T1, Cathepsin B (Homo sapiens, UniProt P07858).
T1 construct: purchased Calbiochem
Put plainly: Study of Cathepsin B inhibition (fluorescence, Z-arg-arg-AMC). It counts as biochemical. The following applies: for IC50: substrate Z-arg-arg-AMC 20 μM, enzyme 16 ng/ml, 1 hour at ambient temperature. On the procedure:
(§1) The products to be tested (10 mM) are diluted to […] in DMSO and distributed into Nunc polystyrene 96 well plates at a rate of 2 μl per well. Column 12 of the plate is reserved for the controls and therefore receives […] of DMSO (without products) per well. The plates are stored at −80° C. and thawed on the day of the experiment.
(§2) The products are diluted to 50 μM by adding 38 μl of reaction buffer: sodium acetate 100 mM, EDTA 5 mM, DTT […] pH 5.5. The addition as well as all the operations by pipette are carried out with a CybiWell 96 tip pipette. After mixing the solutions, each product is transferred into 2 wells (duplicates) of a Greiner black 384 well plate at a rate of 10 μl per well. Two 96-well plates can therefore be tested in a 384-well plate.
(§3) A solution of substrate at 50 μM, Z-Val-arg-AMC (Calbiochem), is prepared in the reaction buffer. The substrate, is then distributed into all the wells of the 384-well plate (20 μl per well).
(§4) A solution of Cathepsin K at 12.5 ng/ml is prepared in the reaction buffer and distributed into all the wells of the 384-well plate (20 μl per well) except for the 16 wells serving as 100% inhibition controls (column 23 and 24, lines I to P) which receive 20 μl of enzyme-free buffer.
(§5) The plates are then incubated 2H at ambient temperature, then read on Fluoroskan (Labsystems): excitation 390 nm; emission 460 nm
(§6) The final concentrations of each of the reagents are: products 10 μM, substrate 20 μM, enzyme 5 ng/ml.
(§7) The % inhibition for each of the products is calculated by using points at 0 and 100% inhibition of each plate as references. The products presenting a significant inhibition are then retested on a range of concentrations from 50 to 0.5 μM to determine an IC50.
Study of Cathepsin B Inhibition:
Protocol identical to that of Cathepsin K except for:
Z-arg-arg-AMC substrate (Calbiochem), solution at 50 μM, final concentration 20 μM
Cathepsin B (Calbiochem), solution at 40 ng/ml, final concentration 16 ng/ml
Incubation for 1 hour at ambient temperature

The next test has as its target T2, Cathepsin K (Homo sapiens, UniProt P43235).
T2 sequence (P43235 115-329): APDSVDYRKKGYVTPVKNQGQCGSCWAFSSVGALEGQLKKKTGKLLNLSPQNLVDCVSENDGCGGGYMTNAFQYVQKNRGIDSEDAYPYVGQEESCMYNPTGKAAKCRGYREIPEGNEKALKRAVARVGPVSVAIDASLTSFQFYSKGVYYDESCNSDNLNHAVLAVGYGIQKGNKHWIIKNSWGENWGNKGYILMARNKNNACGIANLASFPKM
Put plainly: Study of Cathepsin K inhibition (fluorescence, Z-Val-arg-AMC). Particulars: substrate Z-Val-arg-AMC 20 μM, enzyme 5 ng/ml, 2H at ambient temperature; read-out: Cathepsin K IC50. It counts as biochemical. On the procedure:
Study of Cathepsin K Inhibition:
as §1, §2, §3, §4, §5, §6, §7

Some results are limits rather than exact numbers.

What is called IC50 is the concentration that gives 50% inhibition. Turning to `C=CCOC(=O)CC[C@H](NC(=O)[C@@H]1CCCN2C(=O)CC[C@H](NC(=O)Nc3ccc(Oc4ccccc4)cc3)C(=O)N12)C(=O)C=[N+]=[N-]` [Example 43, (2-propenyl)(4S)6-diazo-4-[[[(1S,9S)-9-[[[(4-phenoxyphenyl)amino]carbonyl]amino]-octahydro-6,10-dioxo-6H-pyridazino[1,2-a][1,2]diazepine-1-yl]carbonyl]amino]-5-oxo-hexanoate], the IC50 came out at 15 µM at Cathepsin B and 1.5 µM at Cathepsin K.
Take `C=CCOC(=O)CC[C@H](NC(=O)[C@@H]1CCCN2C(=O)CC[C@H](NS(=O)(=O)c3ccc(-c4ccon4)s3)C(=O)N12)C(=O)C=[N+]=[N-]` [Example 48, (2-propenyl)(4S)6-diazo-4-[[[(1S,9S)-9-[[[5-(isoxazol-3-yl)-2-thienyl]sulphonyl]amino]-octahydro-6,10-dioxo-6H-pyridazino[1,2-a][1,2]diazepine-1-yl]carbonyl]amino]-5-oxo-hexanoate]: the figures for the IC50 at Cathepsin B and at Cathepsin K were 7 µM and 3 µM, respectively.
As to `C=CCOC(=O)CC[C@H](NC(=O)[C@@H]1CCCN2C(=O)CC[C@H](NC(=O)c3ccco3)C(=O)N12)C(=O)COC(=O)c1c(Cl)cccc1Cl` [Example 91, (2-propenyl)(4S)6-[(2,6-dichlorobenzoyl)oxy]-4-[[[(1S,9S)-9-[[(2-furanyl)carbonyl]amino]-octahydro-6,10-dioxo-6H-pyridazino[1,2-a][1,2]diazepine-1-yl]carbonyl]amino]-5-oxo-hexanoate], the IC50 against Cathepsin B was < 0.2 µM; on Cathepsin K, 6 µM.
On Cathepsin B, `C=CCOC(=O)CC[C@H](NC(=O)[C@@H]1CCCN2C(=O)CC[C@H](NS(=O)(=O)c3ccc(C(F)(F)F)cc3)C(=O)N12)C(=O)COC(=O)c1c(Cl)cccc1Cl` [Example 101, (2-propenyl)(4S)6-[(2,6-dichlorobenzoyl)oxy]-4-[[[(1S,9S)-9-[[[4-(trifluoromethyl)phenyl]sulphonyl]amino]-octahydro-6,10-dioxo-6H-pyridazino[1,2-a][1,2]diazepine-1-yl]carbonyl]amino]-5-oxo-hexanoate] yielded a 50% inhibitory concentration (IC50) of 6 µM.
Same read-out and setting: as for `COc1cccc(C(=O)N[C@H]2CCC(=O)N3CCC[C@@H](C(=O)N[C@@H](Cc4ccccc4)C(=O)COC(=O)c4c(Cl)cccc4Cl)N3C2=O)c1` [Example 185, 9-[(9S)-(3-methoxybenzoyl)amino]-N-((2S)-4-[(2,6-dichlorobenzoyl)oxy]-1-phenyl-3-oxo-2-butyl]-octahydro-6,10-dioxo-6H-(1S)-pyridazino[1,2-a][1,2]diazepine-1-carboxamide], the figure is 7 µM.
Consider `O=C(N[C@H]1CCC(=O)N2CCC[C@@H](C(=O)N[C@@H](Cc3ccccc3)C(=O)COC(=O)c3c(Cl)cccc3Cl)N2C1=O)c1ccco1` [Example 192, 9-[(9S)-[(2-furanyl)carbonyl]amino]-N-[(2S)-4-[(2,6-dichlorobenzoyl)oxy]-1-phenyl-3-oxo-2-butyl]-octahydro-6,10-dioxo-6H-(1S)-pyridazino[1,2-a][1,2]diazepine-1-carboxamide], for which the results for the IC50 at Cathepsin B and on Cathepsin K were 18 µM and 20 µM, respectively.
Turning to `O=C(NCCc1cccs1)N[C@H]1CCC(=O)N2CCC[C@@H](C(=O)N[C@@H](Cc3ccccc3)C(=O)CN3CCN(CC(=O)N4CCCC4)CC3)N2C1=O` [Example 229], the IC50 on Cathepsin B is 18 µM; on Cathepsin K it was 20 µM.
Take `CS(=O)(=O)N[C@H]1CCC(=O)N2CCC[C@@H](C(=O)N[C@@H](Cc3ccccc3)C(=O)COC(=O)c3c(Cl)cccc3Cl)N2C1=O` [Example 234, 9-[(9S)-(methylsulphonyl)amino]-N-[(2S)-1-phenyl-4-[(-2,6-dichlorobenzoyl)oxy]-3-oxo-2-butyl]-octahydro-6,10-dioxo-6H-(1S)-pyridazino[1,2-a][1,2]diazepine-1-carboxamide]: the IC50 against Cathepsin B amounted to 18 µM; on Cathepsin K, 20 µM.
Regarding `CC(C)C[C@H](NC(=O)[C@@H]1CCCN2C(=O)CC[C@H](NS(C)(=O)=O)C(=O)N12)C(=O)COC(=O)c1c(Cl)cccc1Cl` [Example 304, 9-[(9S)-(methylsulphonyl)amino]-N-[(3S)-5-methyl-1-[(2,6-dichlorobenzoyl)oxy]-2-oxo-3-hexyl]-octahydro-6,10-dioxo-6H-(1S)-pyridazino[1,2-a][1,2]diazepine-1-carboxamide], the IC50 turned out to be 1.5 µM on Cathepsin B and 12 µM on Cathepsin K.
As for `CC(C)C[C@H](NC(=O)[C@@H]1CCCN2C(=O)CC[C@H](NS(=O)(=O)c3ccc(C(F)(F)F)cc3)C(=O)N12)C(=O)COC(=O)c1c(Cl)cccc1Cl` [Example 313, 9-[(9S)-[[[4-(trifluoromethyl)phenyl]sulphonyl]amino]]-N-[(3S)-5-methyl-1-[(2,6-dichlorobenzoyl)oxy]-2-oxo-3-hexyl]-octahydro-6,10-dioxo-6H-(1S)-pyridazino[1,2-a][1,2]diazepine-1-carboxamide], 5 µM corresponded to half-maximal inhibition against Cathepsin B (IC50).
For the compound `CC(C)C[C@H](NC(=O)[C@@H]1CCCN2C(=O)CC[C@H](NS(=O)(=O)c3ccc4ccccc4c3)C(=O)N12)C(=O)COC(=O)c1c(Cl)cccc1Cl` [Example 322, 9-[(9S)-[(2-naphthalenyl)sulphonyl]amino]-N-[(3S)-5-methyl-1-[(2,6-dichlorobenzoyl)oxy]-2-oxo-3-hexyl]-octahydro-6,10-dioxo-6H-(1S)-pyridazino[1,2-a][1,2]diazepine-1-carboxamide], the IC50 stood at 6 µM against Cathepsin B and 20 µM on Cathepsin K.
`CC(C)C[C@H](NC(=O)[C@@H]1CCCN2C(=O)CC[C@H](NS(C)(=O)=O)C(=O)N12)C(=O)C=[N+]=[N-]` [Example 346, 9-[(9S)-(methylsulphonyl)amino]-N-((3S)-1-diazo-5-methyl-2-oxo-3-hexyl)-octahydro-6,10-dioxo-6H-(1S)-pyridazino[1,2-a][1,2]diazepine-1-carboxamide]: on Cathepsin K, the IC50 came to 6 µM.
Consider `CC(C)C[C@H](NC(=O)[C@@H]1CCCN2C(=O)CC[C@H](NS(=O)(=O)c3ccc(C(F)(F)F)cc3)C(=O)N12)C(=O)C=[N+]=[N-]` [Example 347, 9-[(9S)-[[4-(trifluoromethyl)phenyl]sulphonyl]amino]-N-((3S)-1-diazo-5-methyl-2-oxo-3-hexyl)-octahydro-6,10-dioxo-6H-(1S)-pyridazino[1,2-a][1,2]diazepine-1-carboxamide], for which the “Cathepsin B, percentage in parentheses beside IC50 value (% inhibition)” value on Cathepsin B (printed beside 20 μM, meaning not explained) was determined as 25%. In addition, the IC50 on Cathepsin K was found to be 12 µM.
With `CC(C)C[C@H](NC(=O)[C@@H]1CCCN2C(=O)CC[C@H](NS(=O)(=O)c3ccc4ccccc4c3)C(=O)N12)C(=O)C=[N+]=[N-]` [Example 348, 9-[(9S)-[(2-naphthalenyl)sulphonyl]amino]-N-((3S)-1-diazo-5-methyl-2-oxo-3-hexyl)-octahydro-6,10-dioxo-6H-(1S)-pyridazino[1,2-a][1,2]diazepine-1-carboxamide], the IC50 on Cathepsin K came out at 10 µM.
For the compound `C[C@H](NC(=O)[C@@H]1CCCN2C(=O)CC[C@H](NC(=O)c3ccco3)C(=O)N12)C(=O)COC(=O)c1c(Cl)cccc1Cl` [Example 443, 9-[(9S)-[(2-furanyl)carbonyl]amino]-N-[(2S)-4-[(2,6-dichlorobenzoyl)oxy]-3-oxo-2-butyl]-octahydro-6,10-dioxo-6H-(1S)-pyridazino[1,2-a][1,2]diazepine-1-carboxamide], the midpoint of inhibition against Cathepsin B, the IC50, lay at 5 µM.
With `COc1cccc(C(=O)N[C@H]2CCC(=O)N3CCC[C@@H](C(=O)N[C@@H](C)C(=O)COC(=O)c4c(Cl)cccc4Cl)N3C2=O)c1` [Example 463, 9-[(9S)-(3-methoxybenzoyl)amino]-N-[(2S)-4-[(2,6-dichlorobenzoyl)oxy]-3-oxo-2-butyl]-octahydro-6,10-dioxo-6H-(1S)-pyridazino[1,2-a][1,2]diazepine-1-carboxamide], the IC50 against Cathepsin B is 1.5 µM.
The compound `C[C@H](NC(=O)[C@@H]1CCCN2C(=O)CC[C@H](NS(=O)(=O)c3ccc(C(F)(F)F)cc3)C(=O)N12)C(=O)COC(=O)c1c(Cl)cccc1Cl` [Example 481, 9-[(9S)-[[4-(trifluoromethyl)phenyl]sulphonyl]amino]-N-[(2S)-4-[(2,6-dichlorobenzoyl)oxy]-3-oxo-2-butyl]-octahydro-6,10-dioxo-6H-(1S)-pyridazino[1,2-a][1,2]diazepine-1-carboxamide] returned an IC50 against Cathepsin B of 6 µM.
